Source: paper PMC2825747 (Journal of medicinal chemistry, 2010)

Tests used:
NCI 60 tumor cell lines = assay: NCI preclinical 60 tumor cell line panel growth inhibition; type: cell-based; details: Homo sapiens, read-out: GI50 against the growth of the NCI 60 tumor cell lines
[1] = tested on: MDA MB 435 metastatic dermal breast cancer cells; assay: Cell cycle analysis in MDA-MB-435 cells; type: cell-based, human; details: 20 μM, 24 h exposure
MDA-MB-435 breast cells = assay: Cell signaling analysis; type: cell-based, human; details: MDA-MB-435 cells, 20 μM, 1 or 4 h
[2] = Dose-finding embryo lethality in CAM model; type: in vivo; details: chicken embryos, 3 days after injection
[3] = tested on: COLO-205 metastatic colon cancer cells; assay: COLO-205 human metastatic colon mouse xenograft; type: in vivo, athymic mice; details: 1 at both 25 and 35 mg/kg; DMBI 15 mg/kg three times weekly
[4] = Whole animal toxicity assay; details: doses up from 75 mg/kg; no MTD was determined
[5] = tested on: MDA-MB-435, A431, Capan-1, HUVEC, HMEC-1, Huperi-3, human aortic SMCs; assay: Cell viability; details: 24 h drug then 24 h serum-containing media; Fig. 10
PDGFR-β = PDGFR-β (Homo sapiens, UniProt P09619); assay: PDGFR-β kinase inhibition, phosphotyrosine cytoblot in SF539 cells; type: cell-based; details: versus DMBI
Sequence of PDGFR-β (P09619 33-1106): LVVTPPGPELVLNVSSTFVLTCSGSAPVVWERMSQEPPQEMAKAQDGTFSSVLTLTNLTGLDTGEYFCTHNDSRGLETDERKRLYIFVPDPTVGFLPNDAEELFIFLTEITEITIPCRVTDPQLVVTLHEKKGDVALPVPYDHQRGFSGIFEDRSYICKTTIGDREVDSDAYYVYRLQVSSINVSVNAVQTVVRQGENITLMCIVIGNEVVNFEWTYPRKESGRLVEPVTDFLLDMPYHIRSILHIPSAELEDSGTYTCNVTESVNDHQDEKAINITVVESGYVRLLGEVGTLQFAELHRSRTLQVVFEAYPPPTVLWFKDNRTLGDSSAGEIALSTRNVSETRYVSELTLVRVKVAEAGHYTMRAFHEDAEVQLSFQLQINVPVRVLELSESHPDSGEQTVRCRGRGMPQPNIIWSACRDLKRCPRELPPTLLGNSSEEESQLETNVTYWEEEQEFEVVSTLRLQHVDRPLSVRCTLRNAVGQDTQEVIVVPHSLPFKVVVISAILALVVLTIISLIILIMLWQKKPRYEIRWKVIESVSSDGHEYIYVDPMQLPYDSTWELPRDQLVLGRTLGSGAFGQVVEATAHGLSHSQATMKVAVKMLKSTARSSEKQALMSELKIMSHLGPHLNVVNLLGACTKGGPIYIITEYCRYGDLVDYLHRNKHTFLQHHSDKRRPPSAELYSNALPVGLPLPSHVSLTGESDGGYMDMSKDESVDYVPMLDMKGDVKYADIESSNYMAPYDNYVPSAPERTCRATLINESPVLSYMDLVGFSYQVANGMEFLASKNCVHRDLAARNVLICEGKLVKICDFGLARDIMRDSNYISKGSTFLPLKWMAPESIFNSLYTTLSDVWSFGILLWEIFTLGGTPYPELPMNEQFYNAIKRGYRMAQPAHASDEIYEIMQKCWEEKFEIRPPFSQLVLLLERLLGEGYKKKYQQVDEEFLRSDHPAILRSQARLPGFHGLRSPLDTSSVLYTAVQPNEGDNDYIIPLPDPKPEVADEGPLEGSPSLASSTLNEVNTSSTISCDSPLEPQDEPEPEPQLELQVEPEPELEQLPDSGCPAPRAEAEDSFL

Flt-3 = target: T1, Flt-3 (Homo sapiens, UniProt P36888); assay: Flt-3 kinase whole cell assay, cytoblot in MV 3:11 cells; type: cell-based; details: versus 16
T1 sequence (P36888 27-993): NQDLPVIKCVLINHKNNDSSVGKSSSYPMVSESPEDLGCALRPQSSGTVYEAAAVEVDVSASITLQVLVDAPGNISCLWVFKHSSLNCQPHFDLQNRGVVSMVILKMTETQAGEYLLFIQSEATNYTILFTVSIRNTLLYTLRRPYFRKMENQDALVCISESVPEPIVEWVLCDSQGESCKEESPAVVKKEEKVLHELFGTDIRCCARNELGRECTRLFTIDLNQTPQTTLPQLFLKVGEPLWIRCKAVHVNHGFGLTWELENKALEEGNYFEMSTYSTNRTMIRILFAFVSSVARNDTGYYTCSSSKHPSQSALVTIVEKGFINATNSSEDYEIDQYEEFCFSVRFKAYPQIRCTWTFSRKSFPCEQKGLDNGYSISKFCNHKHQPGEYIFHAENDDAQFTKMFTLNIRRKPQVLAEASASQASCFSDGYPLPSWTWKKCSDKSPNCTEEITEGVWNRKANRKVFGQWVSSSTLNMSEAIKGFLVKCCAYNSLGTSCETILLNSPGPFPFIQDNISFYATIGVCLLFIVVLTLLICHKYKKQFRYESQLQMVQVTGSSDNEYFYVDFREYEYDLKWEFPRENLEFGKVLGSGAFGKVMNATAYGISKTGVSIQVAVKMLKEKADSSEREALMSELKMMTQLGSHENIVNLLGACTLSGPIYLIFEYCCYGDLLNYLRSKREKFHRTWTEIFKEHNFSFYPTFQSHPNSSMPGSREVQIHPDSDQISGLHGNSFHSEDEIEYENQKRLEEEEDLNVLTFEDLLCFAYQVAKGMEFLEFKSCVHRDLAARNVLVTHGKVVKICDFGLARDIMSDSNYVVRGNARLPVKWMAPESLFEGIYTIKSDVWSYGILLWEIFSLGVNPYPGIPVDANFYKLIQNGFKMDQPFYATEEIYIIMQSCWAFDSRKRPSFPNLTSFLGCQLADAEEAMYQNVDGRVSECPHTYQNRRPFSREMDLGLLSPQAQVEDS

[6] = target: human thymidylate synthase (hTS) (Homo sapiens, UniProt P04818); assay: Thymidylate synthase; type: biochemical; details: versus pemetrexed
Sequence of human thymidylate synthase (hTS) (P04818 whole entry): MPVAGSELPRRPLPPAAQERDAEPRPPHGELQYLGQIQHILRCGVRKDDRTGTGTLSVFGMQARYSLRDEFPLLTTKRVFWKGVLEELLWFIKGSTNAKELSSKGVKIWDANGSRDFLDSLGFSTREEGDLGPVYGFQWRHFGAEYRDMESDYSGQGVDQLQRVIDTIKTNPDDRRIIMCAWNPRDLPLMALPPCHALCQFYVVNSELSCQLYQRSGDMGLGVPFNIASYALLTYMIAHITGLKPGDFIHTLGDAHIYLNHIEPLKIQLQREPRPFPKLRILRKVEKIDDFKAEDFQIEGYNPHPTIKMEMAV

[7] = target: E. coli thymidylate synthase (Escherichia coli, UniProt P0A884); assay: Thymidylate synthase; type: biochemical
Sequence of E. coli thymidylate synthase (P0A884 whole entry): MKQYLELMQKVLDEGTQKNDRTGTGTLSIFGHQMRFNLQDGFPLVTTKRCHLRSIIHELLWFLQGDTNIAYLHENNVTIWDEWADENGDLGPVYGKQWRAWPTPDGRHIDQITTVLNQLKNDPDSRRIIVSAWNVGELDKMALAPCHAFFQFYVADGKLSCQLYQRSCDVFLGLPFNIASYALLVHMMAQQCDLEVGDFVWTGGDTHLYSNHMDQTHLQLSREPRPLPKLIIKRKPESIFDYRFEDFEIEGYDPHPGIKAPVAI

[8] = target: T2, Toxoplasma gondii thymidylate synthase (Toxoplasma gondii, UniProt Q07422); assay: biochemical
T2 sequence (Q07422 1-610): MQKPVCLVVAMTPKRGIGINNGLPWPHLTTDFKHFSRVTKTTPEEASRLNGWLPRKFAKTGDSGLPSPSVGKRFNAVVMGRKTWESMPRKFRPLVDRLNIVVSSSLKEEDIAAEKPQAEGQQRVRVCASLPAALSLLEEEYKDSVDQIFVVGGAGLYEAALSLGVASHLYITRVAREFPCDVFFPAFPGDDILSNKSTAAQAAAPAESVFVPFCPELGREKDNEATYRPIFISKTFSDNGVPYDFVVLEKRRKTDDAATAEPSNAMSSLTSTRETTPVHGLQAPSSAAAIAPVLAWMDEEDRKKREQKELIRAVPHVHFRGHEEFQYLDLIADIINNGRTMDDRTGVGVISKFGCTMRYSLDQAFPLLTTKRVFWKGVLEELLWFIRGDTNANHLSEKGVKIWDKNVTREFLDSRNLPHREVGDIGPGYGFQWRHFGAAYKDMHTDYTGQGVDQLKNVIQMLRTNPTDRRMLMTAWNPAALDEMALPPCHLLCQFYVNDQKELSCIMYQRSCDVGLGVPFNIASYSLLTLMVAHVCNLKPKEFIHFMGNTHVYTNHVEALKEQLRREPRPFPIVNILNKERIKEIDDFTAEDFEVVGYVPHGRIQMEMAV

[9] = target: T3, Toxoplasma gondii dihydrofolate reductase (Toxoplasma gondii, UniProt Q07422); assay: biochemical
T3 sequence (Q07422 1-610): T2 sequence (Q07422 1-610)

Row | SMILES | GI50 (NCI 60 tumor cell lines) | cell cycle effect [1] | levels of activated phospho-Akt (MDA-MB-435 breast cells) | levels of activated phospho-p42/44 MAPkinase (ERK 1/2) (MDA-MB-435 breast cells) | levels of cleaved caspase 3 (MDA-MB-435 breast cells) | highest dose resulting in no lethality or overt toxicity in embryos [2] | numbers of COLO-205 metastases to the liver [3] | tolerability in mice [4] | cell viability (cell kill) sensitivity by cell type [5] | PDGFR-β: fold less potent than the standard DMBI (PDGFR-β) | Flt-3: fold less active compared with standard 16 (Flt-3) | hTS: fold more active than PMX as its monoglutamate [6] | IC50 [7] | IC50 [8] | IC50 [9]
1 | Nc1nc(N)c2c(n1)[nH]c1cccc(Sc3ccccc3)c12 [Compound 1, 5-(phenylthio)-9H-pyrimido[4,5-b]indole-2,4-diamine] | 1 to 10 µM | buildup in G2/M | neither agent resulted in increased levels of activated phospho-Akt | reduced levels of activated ERK 1/2 | neither 20 μM 1 or 20 μM 2 resulted in increased levels of cleaved caspase 3 | 25 mg/kg | significantly reduced numbers of COLO-205 metastases to the liver | well tolerated without any visual ADRs or loss in weight | Human retinal pericytes (Huperi-3),[64] (not human aortic SMCs), were very sensitive | – | – | – | – | – | –
2 | Nc1ccn([C@@H]2O[C@H](CO)[C@@H](O)C2(F)F)c(=O)n1 [gemcitabine, reference compound] | – | – | – | – | – | 10 mg/kg | – | – | – | – | – | – | – | – | –
3 | Cc1ccc(Sc2cccc3[nH]c4nc(N)nc(N)c4c23)cc1 [Compound 2, 5-[(4-methylphenyl)thio]-9H-pyrimido[4,5-b]indole-2,4-diamine] | – | increase in S phase | neither agent resulted in increased levels of activated phospho-Akt | reduced levels of activated ERK 1/2 | neither 20 μM 1 or 20 μM 2 resulted in increased levels of cleaved caspase 3 | – | – | – | tumor cells being the most sensitive, endothelial cells falling someplace in the middle, and SMC variants being the least sensitive | about 11 fold | about 13 fold | 76 fold | > 26 µM | > 26 µM | > 31 µM
